According to patent US20250129095A1, “ANNULATED 2-AMINO-3-CYANO THIOPHENES AND DERIVATIVES FOR THE TREATMENT OF CANCER” (Boehringer Ingelheim Int'l GmbH Corp., priority 2021, published 2025):

Key:
KRAS G12V Ba/F3 = KRAS G12V Ba/F3 (Homo sapiens, UniProt P01116, G12V, cells depend on it); assay: Ba/F3 proliferation assay, KRAS G12V; assay type: cell-based; conditions: 72 h, AlamarBlue, read-out: KRAS G12V Ba/F3 IC50
Method: Plasmids containing KRASG12 mutants(i.e. G12D, G12C, G12V) are obtained from GeneScript. To generate KRASG12-dependent Ba/F3 models, Ba/F3 cells are transduced with retroviruses containing vectors that harbor KRASG12 isoforms. Platinum-E cells (Cell Biolabs) are used for retrovirus packaging. Retrovirus is added to Ba/F3 cells. To ensure infection, 4 μg/mL polybrene is added and cells are spinfected. […] Cells with an infection efficiency of 10% to 20% are further cultivated and puromycin selection with 1 μg/mL is initiated. As a control, parental Ba/F3 cells are used to show selection status. Selection is considered successful when parental Ba/F3 cells cultures died. To evaluate the transforming potential of KRASG12 mutations, the growth medium is no longer supplemented with IL-3. Ba/F3 cells harboring the empty vector are used as a control. Approximately ten days before conducting the experiments, puromycin is left out.
Compounds are added using an Access Labcyte Workstation with a Labcyte Echo 550 or 555 accoustic dispenser. All treatments are performed in technical duplicates. […] AlamarBlue™ (ThermoFisher), a viability stain, is added and fluorescence measured in the PerkinElmer Envision HTS Multilabel Reader. The raw data are imported into and analyzed with the Boehringer Ingelheim proprietary software MegaLab (curve fitting based on the program PRISM, GraphPad Inc.).

KRAS (G12D)::SOS1 = target: T1, KRAS (G12D)::SOS1 (Homo sapiens, UniProt P01116, G12D); assay: KRAS::SOS1 AlphaScreen binding assay, KRAS G12D; conditions: read-out: KRASG12D IC50
T1 construct: KRAS (G12D) 1-169, N-terminal 6His-tag, C-terminal avi-tag; 6His-tag (N); purchased Xtal BioStructures, Inc. (KRAS); Viva Biotech Ltd (SOS1)
T1 sequence (P01116 1-169 isoform P01116-2 G12D): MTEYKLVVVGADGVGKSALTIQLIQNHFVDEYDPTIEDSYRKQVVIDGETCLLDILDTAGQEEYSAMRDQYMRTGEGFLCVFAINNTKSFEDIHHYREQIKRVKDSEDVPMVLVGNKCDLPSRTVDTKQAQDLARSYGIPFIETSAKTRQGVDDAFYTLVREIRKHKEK
Source text: This assay can be used to examine the potency with which compounds according to the invention binding to (mutated) KRAS inhibit the protein-protein interaction between SOS1 and (mutated) KRAS e.g., KRAS WT, KRAS G12C, KRAS G12D, KRAS G12V, KRAS G13D. […] Low IC50 values in this assay setting are indicative of strong inhibition of protein-protein interaction between SOS1 and KRAS:
These assays measure the inhibitory effect of compounds on KRAS mutant protein-protein interactions using the Alpha Screen technology by Perkin Elmer
The following (mutant) enzyme forms of KRAS and interacting proteins are used in these assays at the given concentrations: • KRAS (G12D) 1-169, N-terminal 6His-tag, C-terminal avi-tag (Xtal BioStructures, Inc.); final assay concentration 10 nM and SOS1 564-1049, N-terminal 229 GST-tag, TEV cleavage site (Viva Biotech Ltd); final assay concentration 5 nM; • KRAS (G12C) 1-169, N-terminal 6His-tag for purification, cleaved off, C-terminal avi-tag, biotinylated, mutations: C51S, C80L, C118S (in house); final assay concentration 7.5 nM and SOS1 564-1049, N-terminal 229 GST-tag, TEV cleavage site (Viva Biotech Ltd); final assay concentration 5 nM; • KRAS (G12V) 1-169, N-terminal 6His-tag for purification, cleaved off, C-terminal avi-tag, biotinylated, TEV cleavage site, mutation: C118S, GDP loaded (in house); final assay concentration 10 nM and SOS1 564-1049, N-terminal 229 GST-tag, TEV cleavage site (Viva Biotech Ltd); final assay concentration 10 nM; • KRAS (G13D) 1-169, N-terminal 6His-tag for purification, cleaved off, C-terminal avi-tag, biotinylated, TEV cleavage site, mutation: C118S, GDP loaded (in house); final assay concentration 10 nM and SOS1 564-1049, N-terminal 229 GST-tag, TEV cleavage site (Viva Biotech Ltd); final assay concentration 10 nM; • KRAS (WT) 1-169, N-terminal 6His-tag for purification, cleaved off, C-terminal avi-tag, biotinylated, TEV cleavage site, mutation: C118S, GDP loaded (in house); final assay concentration 10 nM and SOS1 564-1049, N-terminal 229 GST-tag, TEV cleavage site (Viva Biotech Ltd); final assay concentration 10 nM.
Test compounds dissolved in DMSO are dispensed onto assay plates (Proxiplate 384 PLUS, white, PerkinElmer; 6008289) using an Access Labcyte Workstation with the Labcyte Echo 55×. For the chosen highest assay concentration of 100 μM, 150 nL of compound solution are transferred from a 10 mM DMSO compound stock solution. A series of eleven fivefold dilutions per compound are transferred to the assay plate, compound dilutions are tested in duplicates. DMSO are added as backfill to a total volume of 150 nL.
The assays run on a fully automated robotic system in a darkened room below 100 Lux. To 150 nl of compound dilution 10 μl of a mix including KRAS mutant protein, SOS1 (final assay concentrations see above) and GDP nucleotide (Sigma G7127; final assay concentration 10 μM) in assay buffer (1×PBS, 0.1% BSA, 0.05% Tween 20) are added into columns 1-24.
After 30 minutes incubation time 5 μl of Alpha Screen bead mix in assay buffer are added into columns 1-23. Bead mix consists of AlphaLISA Glutathione Acceptor Beads (PerkinElmer, Cat No AL109) and AlphaScreen Streptavidin Donor Beads (PerkinElmer Cat No 6760002) in assay buffer at a final assay concentration of 10 μg/ml each.
Plates are kept at room temperature in a darkened incubator. After an additional 60 minutes incubation time the signal is measured in a PerkinElmer Envision HTS Multilabel Reader using the AlphaScreen specs from PerkinElmer.
Each plate contains up to 16 wells of a negative control depending on the dilution procedure (platewise or serial) (DMSO instead of test compound; with KRAS mutant::SOS1 GDP mix and bead mix; column 23) and 16wells of a positive control (DMSO instead of test compound; with KRAS mutant::SOS1 GDP mix w/o bead mix; column 24).
As internal control known inhibitors of KRAS mutant::SOS1 interaction can be measured on each compound plate. […]

Chain of KRAS G12V Ba/F3 (P01116 whole entry G12V, canonical isoform): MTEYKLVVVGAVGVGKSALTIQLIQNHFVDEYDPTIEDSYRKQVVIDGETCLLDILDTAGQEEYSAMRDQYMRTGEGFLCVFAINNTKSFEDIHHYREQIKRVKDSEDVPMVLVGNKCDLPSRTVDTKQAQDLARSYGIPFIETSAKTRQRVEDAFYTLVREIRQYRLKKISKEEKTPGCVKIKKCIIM

SMILES | GI50 (KRAS G12V Ba/F3) | IC50 (KRAS (G12D)::SOS1)
C[C@H](Oc1cc(O[C@@H]2CNC[C@@H]2F)nc(-c2noc3c2CCC[C@@]32CCCc3sc(N)c(C#N)c32)n1)[C@@H]1CCCN1C [II-29] | 0.065 µM | 0.001 µM
CO[C@@H]1C[C@@H]([C@H](C)Oc2cc(O[C@@H]3CNC3(C)C)nc(-c3noc4c3CCC[C@@]43CCCc4sc(N)c(C#N)c43)n2)N(C)C1 [II-30] | 0.297 µM | 0.001 µM
C[C@H](Oc1cc(O[C@@H]2CNC2(C)C)nc(-c2noc3c2CCC[C@@]32CCCc3sc(N)c(C#N)c32)n1)[C@@H]1C[C@@H](F)CN1C [II-31] | 0.23 µM | 0.001 µM
